Read-outs that look alike come from different tables or passages of the source.
Experiments:
[1] = Test regarding solubility in artificial intestinal juice (FaSSIF); assay type: physicochemical; settings: after lapsing 0.25 hours; for solubility / solubility at 0.25 h: artificial intestinal juice (FaSSIF); for solubility / solubility per free base: 37° C.; for solubility at 0.25 h: 37 °C, fassif, thermodynamic from solid
Procedure: About 5 mg of the present compound was weighed in a test tube, a stirrer and 5 mL of an artificial intestinal juice (FaSSIF; Reference 1: Pharmaceutical Research, Vol. 20, pp. 1674-1680, 2003, and Reference 2: Biological & Pharmaceutical Bulletin, Vol. 34, pp. 401-407, 2011) were added in the test tube, and the test tube was then hermetically sealed. The test tube was placed in a solubility test apparatus (Gilson, Quad-Z 215), and stirring was performed at 37° C. and 700 rpm. A part of the liquid in the test tube was collected after lapsing 0.25, 0.5, 1, 3, 6, and 24 hours, respectively. The collected liquid was filtered with a filter, and the filtrate was diluted to 2-fold with acetonitrile. The diluted liquid was centrifuged at 3,000 rpm for 5 minutes. A supernatant after centrifugation was used as a sample solution and calculated for solubility by means of high-performance liquid chromatography.
High-Performance Liquid Chromatography Measurement Conditions

[2] = system: sodium monoiodoacetate-induced model rats; experiment: Analgesic effect on sodium monoiodoacetate-induced model rats; assay type: in vivo, rat; settings: MIA rats, day 24
[3] = system: rat NGF-induced vascular hyper permeability; experiment: Inhibiting effect of rat NGF-induced vascular hyper permeability; assay type: in vivo; settings: 1 mg/kg oral (as free base)
Procedure: TrkA-inhibiting activity of the present compound was evaluated in vivo. The present compound dissolved in a medium was orally administered (adminstered volume: 5 mL/kg) to male CD(SD)IGS rats (7- to 9-week old, Charles River Laboratories Japan, Inc.) shaved on the back. A medium was orally administered (adminstered volume: 5 mL/kg) to the control and normal groups. After 12 or 14 hours of administration, 3 μg/mL of an NGF (Mouse 2.5s, Natural, Invitrogen) solution prepared in 0.1% BSA (Sigma-Aldrich)-containing saline was intracutaneously administered (adminstered volume; 50 μL/site) at 3 sites on the back of animals under halothane anesthesia. For the normal group, 0.1% BSA-containing saline was intracutaneously administered (adminstered volume; 50 μL/site) at 3 sites on the back. Immediately after intracutaneous administration, 1% Evans Blue (Tokyo Chemical Industriy Co., Ltd.) dissolved in saline was administered intravenously from tail (adminstered volume: 3 mL/kg). After 10 minutes of administration, the animals were sacrificed by bleeding due to incision of the abdominal aorta. The sites of intracutaneous administration on the back (3 sites) were excised, and the skin samples were respectively transferred to the wells in a 48-well plate (Asahi Glass Co., Ltd.). […] The formamide extraction solution (200 μL) was transferred to a 96-well plate, and the absorbance (wavelength: 620 nm) of Evans Blue extracted in formamide was measured on an absorbance microplate reader (SpectraMAX 190, Molecular Devices Japan, K.K.). Standard samples of Evans Blue dissolved in formamide (0, 0.78, 1.56, 3.13, 6.25, 12.5, 25, and 50 μg/mL) were measured at the same time for the absorbance (wavelength: 620 nm), thereby preparing a calibration curve. Based on the calibration curve and the absorbances of the respective samples, the concentrations of Evans Blue in each sample was calculated. […] The rate of inhibition for rat NGF-induced vascular hyper permeability of the present compound was calculated according to the following Equation 4. […]

[4] = present compound oral twice a day over 10 days, then 3 hours before measurement, dose (0.1, 0.3 or 1 mg/kg) not given
[5] = FaSSIF, salt value converted to the corresponding free base, read-out: solubility per free base
[6] = 14 hours before administration of NGF
[7] = FaSSIF, salt value converted to the corresponding free base, Methanesulfonate
[8] = as the substance itself (salt or free base), Methanesulfonate

## CS(=O)(=O)c1ccc(C(F)(F)F)cc1NC(=O)Nc1cnc(Oc2ccc(-c3cc(Cl)cnc3N)cc2)nc1 [Compound (I), 1-{2-[4-(2-amino-5-chloro-3-pyridinyl)phenoxy]-5-pyrimidinyl}-3-[2-(methylsulfonyl)-5-(trifluoromethyl)phenyl]urea]
[1]; as the substance itself (salt or free base)
  solubility: 7 µg/mL

## Nc1ncc(F)cc1-c1ccc(Oc2ncc(NC(=O)Nc3cc(C(F)(F)F)ccc3-c3cccnc3)cn2)cc1 [di(p-toluenesulfonate) of Compound (II), 1-{2-[4-(2-amino-5-fluoropyridin-3-yl)phenoxy]pyrimidin-5-yl}-3-[2-(pyridin-3-yl)-5-(trifluoromethyl)phenyl]urea di(p-toluenesulfonate)]
[2]; [4]
  percent improvement (right hind limb weight load ratio): about 53%
[3]; 12 hours before administration of NGF
  inhibition rate of rat NGF-induced vascular hyper permeability: about 78%
[1]; as the substance itself (salt or free base), di(p-toluenesulfonate)
  solubility: 99 µg/mL
[1]; [5]
  solubility at 0.25 h: 61 µg/mL

## Nc1ncc(F)cc1-c1ccc(Oc2ncc(NC(=O)Nc3cc(C(F)(F)F)ccc3-c3cccnc3)cn2)cc1 [dibenzenesulfonate of Compound (II), 1-{2-[4-(2-amino-5-fluoropyridin-3-yl)phenoxy]pyrimidin-5-yl}-3-[2-(pyridin-3-yl)-5-(trifluoromethyl)phenyl]urea dibenzenesulfonate]
[1]; FaSSIF, salt value converted to the corresponding free base, dibenzenesulfonate
  solubility per free base: 52 µg/mL
[1]; as the substance itself (salt or free base), dibenzenesulfonate
  solubility: 81 µg/mL

## CS(=O)(=O)c1ccc(C(F)(F)F)cc1NC(=O)Nc1cnc(Oc2ccc(-c3cc(Cl)cnc3N)cc2)nc1.Cl [hydrochloride of Compound (I), 1-{2-[4-(2-amino-5-chloro-3-pyridinyl)phenoxy]-5-pyrimidinyl}-3-[2-(methylsulfonyl)-5-(trifluoromethyl)phenyl]urea Hydrochloride]
[2]; [4]
  percent improvement (right hind limb weight load ratio): about 54%
[3]; [6]
  inhibition rate of rat NGF-induced vascular hyper permeability: about 100%

## CS(=O)(=O)c1ccc(C(F)(F)F)cc1NC(=O)Nc1cnc(Oc2ccc(-c3cc(Cl)cnc3N)cc2)nc1 [methanesulfonate of Compound (I), 1-{2-[4-(2-amino-5-chloro-3-pyridinyl)phenoxy]-5-pyrimidinyl}-3-[2-(methylsulfonyl)-5-(trifluoromethyl)phenyl]urea Methanesulfonate]
[1]; [7]
  solubility per free base: 47 µg/mL
[1]; [8]
  solubility: 55 µg/mL

## Nc1ncc(Cl)cc1-c1ccc(Oc2ncc(NC(=O)Nc3cc(C(F)(F)F)ccc3-n3cccn3)cn2)cc1 [methanesulfonate of Compound (III), 1-(2-(1H-pyrazol-1-yl)-5-(trifluoromethyl)phenyl)-3-(2-(4-(2-amino-5-chloropyridin-3-yl)phenoxy)pyrimidin-5-yl)urea Methanesulfonate]
[2]; [4]
  percent improvement (right hind limb weight load ratio): about 61%
[3]; [6]
  inhibition rate of rat NGF-induced vascular hyper permeability: about 97%
[1]; [7]
  solubility per free base: 45 µg/mL
[1]; [8]
  solubility: 53 µg/mL

## CN1CC[C@]23c4c5ccc(O)c4O[C@H]2[C@@H](O)C=C[C@H]3[C@H]1C5 [morphine, reference compound]
[2]; morphine 3 mg/kg subcutaneous one hour before measurement
  percent improvement (right hind limb weight load ratio): 54%

## CS(=O)(=O)c1ccc(C(F)(F)F)cc1NC(=O)Nc1cnc(Oc2ccc(-c3cc(Cl)cnc3N)cc2)nc1 [p-toluenesulfonate of Compound (I), 1-{2-[4-(2-amino-5-chloro-3-pyridinyl)phenoxy]-5-pyrimidinyl}-3-[2-(methylsulfonyl)-5-(trifluoromethyl)phenyl]urea p-toluenesulfonate]
[1]; as the substance itself (salt or free base), p-toluenesulfonate
  solubility: 96 µg/mL
[1]; [5]
  solubility at 0.25 h: 74 µg/mL

## Nc1ncc(Cl)cc1-c1ccc(Oc2ncc(NC(=O)Nc3cc(C(F)(F)F)ccc3-n3cccn3)cn2)cc1 [p-toluenesulfonate of Compound (III), 1-(2-(1H-pyrazol-1-yl)-5-(trifluoromethyl)phenyl)-3-(2-(4-(2-amino-5-chloropyridin-3-yl)phenoxy)pyrimidin-5-yl)urea p-Toluenesulfonate]
[1]; [5]
  solubility at 0.25 h: 42 µg/mL
[1]; as the substance itself (salt or free base), read-out: solubility
  solubility at 0.25 h: 55 µg/mL

## COc1cccc(C2(O)CCCCC2CN(C)C)c1 (stereo not drawn) [tramadol, reference compound]
[2]; tramadol 10 mg/kg subcutaneous one hour before measurement
  percent improvement (right hind limb weight load ratio): 43%

Source: US10399959B2, “Acid-addition salt of Trk-inhibiting compound” (ONO PHARMACEUTICAL CO., LTD., priority 2014, dated 2019)
